Holding throughout (type): cell-based
Experiment [1] deals with cells. The experiment can be described thus: Cell proliferation by multiplexed flow cytometry (dilution of a fluorescent tracer), Example 61. As for the experimental part: (§1) The activities are measured by multiplexed flow cytometry tests, by coupling the measurement of apoptosis and cell proliferation. The cell proliferation is measured by monitoring the dilution of a specific fluorescent tracer during the cell divisions: • the cells are incubated in the presence of several concentrations of compounds, then • the measurements of apoptosis and cell proliferation are made simultaneously by the flow cytometry technique; specimen dose/response curves for the action of the compounds on apoptosis and on cell proliferation are obtained.

Experiment [2] deals with cells. Description: Apoptosis (sub-G1) by multiplexed flow cytometry, Example 61. As for the experimental part:
as §1

In experiment [3] the test system is cells. The experiment can be described thus: Sub-G1 apoptosis test (DNA fragmentation, fluorescent DNA intercalator), Example 60. The note with it: for Activity (sub-Gl): apoptosis, DNA fragmentation by fluorescence; for pro-apoptotic activity (in words): conclusion from the tests of Example 60. On the procedure: The biological tests on activity (Sub-G1) relate to measurement of apoptosis. For this purpose, a fluorescent tracer, a DNA intercalator, makes it possible to display the fragmentation of the DNA. This fragmentation of the DNA results from the induction of the apoptotic phenomenon in the cells. The cells are incubated in the presence of various concentrations of the compounds presented above. The measurement of the apoptosis in the cells is monitored by measuring the fluorescence, thus making it possible to determine the activity of the compounds in […]. The activity tests (sub-G1) on certain compounds are presented below.

[4] abbreviates: conclusion from the tests of Example 61.

This note sets out measurements from patent US20090247472A1, “TYPE 1, 4-NAPHTOQUINONE COMPOUNDS, COMPOSITIONS COMPRISING THEM AND USE OF THESE COMPOUNDS AS ANTI-CANCER AGENTS” (FLUOFARMA, priority 2006, published 2009).

On to `CC1=C(CCNC(=O)CN)C(=O)c2ccccc2C1=O.Cl` [Example 26, 2-methyl-3-(glycinyl-aminoethyl)-1,4-naphthoquinone chlorohydrate], for which the “Activity (prolif at 24 h)” value with cells [1] (cell proliferation at 24 h, flow cytometry) was 12.3 µM. Besides, in the experiment with cells [1] (setting [4]), the “anti-proliferative activity (in words)” value is given as “anti-proliferative activity”. Besides, the “Activity (sub-Gl)” value in the experiment with cells [2] (apoptosis, multiplexed flow cytometry) turned out to be 11.8 µM. For the same compound, in the experiment with cells [2] (setting [4]), the “pro-apoptotic activity (in words)” value is on record as “pro-apoptotic”.
Take `CC1=C(CNC(=O)C(C)N)C(=O)c2ccccc2C1=O.Cl` [Example 17, 2-methyl-3-(L-alaninyl-aminomethyl)-1,4-naphthoquinone chlorhydrate]: in the experiment with cells [3], the “Activity (sub-Gl)” value is 13.3 µM and the “pro-apoptotic activity (in words)” value is “pro-apoptotic activity”.
The matching figures for `CC1=C(CNC(=O)C(N)CO)C(=O)c2ccccc2C1=O.Cl` [Example 18, 2-methyl-3-(L-serinyl-aminomethyl)-1,4-naphthoquinone chlorhydrate]: 11.8 µM and “pro-apoptotic activity”.
The matching figures for `CC1=C(CNC(=O)C(N)C(C)O)C(=O)c2ccccc2C1=O` [Example 20, 2-methyl-3-(L-threoninyl-aminomethyl)-1,4-naphthoquinone chlorohydrate]: 12.2 µM and “pro-apoptotic activity”.
Regarding `CC1=C(CNC(=O)C(N)C(C)C)C(=O)c2ccccc2C1=O.Cl` [Example 19, 2-methyl-3-(D-valinyl-aminomethyl)-1,4-naphthoquinone chlorhydrate], in the experiment with cells [3], the “Activity (sub-Gl)” value came to 12 µM and the “pro-apoptotic activity (in words)” value is on record as “pro-apoptotic activity”.
